# Experimental data taken from patent publication US7745450B2, “Pyrazolo[4,3-d]pyrimidines, processes for their preparation and methods for therapy” (Institute of Experimental Botany, priority 2002, dated 2010).
# What was measured:
# [1] = test system: B16; test: In vitro cytotoxic activity, Calcein AM; type: cell-based; conditions: Mus musculus, B16, 72 h, three days
# [2] = test system: CEM (human lymphoblastoid leukemia); test: In vitro cytotoxic activity, Calcein AM; type: cell-based; conditions: Homo sapiens, 72 h, three days
# Experimental: We have been using the following cell lines: HELA (human cervical carcinoma), MCF7 (human breast adenocarcinoma), NIH 3T3 (mouse fibroblasts), HOS (human osteogenic sarcoma), HL 60 (human promyelocytic leukemia), G 361 (human malignant melanoma), K562 (human erythroleukemia), CEM (human lymphoblastoid leukemia). Tested drugs were added to the cell cultures in six different concentration and kept at 37° C. and 5% CO2 for three days. All cell lines were grown in DMEM medium (Gibco BRL) supplemented with 10% (v/v) fetal bovine serum and L-glutamine and maintained at 37° C. in a humidified atmosphere with 5% CO2. 10^4 cells were seeded into each well of 96 well plate, allowed to stabilize for at least 2 h and then tested compounds were added at various concentrations ranging from 200 to 0.2 μM in triplicates. Three days after drug addition Calcein AM solution (Molecular Probes) was added and let to enter the cells for 1 hour. Fluorescence of viable cells was quantified employing Fluoroskan Ascent (Microsystems).
# [3] = biological target: MMK1 protein kinase (Vicia faba, UniProt A0AAV1B7B8); test: MMK1 protein kinase activity; type: biochemical
# Sequence of MMK1 protein kinase (A0AAV1B7B8 1-394): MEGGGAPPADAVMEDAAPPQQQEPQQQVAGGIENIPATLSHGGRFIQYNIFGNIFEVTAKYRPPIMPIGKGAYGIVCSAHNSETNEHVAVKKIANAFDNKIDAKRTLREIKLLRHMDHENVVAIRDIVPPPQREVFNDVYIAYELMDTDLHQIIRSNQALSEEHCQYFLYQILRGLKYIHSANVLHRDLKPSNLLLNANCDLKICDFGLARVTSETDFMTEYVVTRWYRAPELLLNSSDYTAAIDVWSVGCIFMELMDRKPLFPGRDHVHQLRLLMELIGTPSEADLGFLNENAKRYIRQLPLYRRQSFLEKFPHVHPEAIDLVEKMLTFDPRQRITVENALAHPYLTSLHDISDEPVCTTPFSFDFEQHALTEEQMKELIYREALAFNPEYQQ
# Experimental: Protein extraction and purification of pant CDK by binding to p13^suc1-beads or immunopurification with an antibody specific to the cdc2a-MS protein was carried out as described previously (Bögre et al. 1997, Plant Physiol. 113, 1997, 841-852). The MMK1 protein kinase was purified with a specific antibody from Vicia faba extracts as described by Bögre et al. 1997a, Plant Cell 9, 75-83). Protein kinase activity was measures as described above in Example 20. The quantification of radioactivity incorporated into histone H1 or myelin basic protein was undertaken using phosphoimager (FIG. 2).
# [4] = test system: normal human lymphocytes; test: Immunosuppressive activity, 3H-thymidine incorporation in concanavalin A activated lymphocytes; type: cell-based; conditions: Lymphocyte, 72 hours, [3H]-TdR, read-out: Human lymphocytes ED50
# Experimental: Human heparinized peripheral blood was obtained from healthy volunteers by cubital vein punction. The blood was diluted in PBS (1:3) and mononuclear cells were separated by centrifugation in Ficoll-Hypaque density gradient (Pharmacia, 1.077 g/ml) at 2200 rpm for 30 minutes. Following centrifugation, lymphocytes were washed in PBS and resuspended in cell culture medium (RMPI 1640, 2 mM glutamine, 100 U/ml penicillin, 100 μg/ml streptomycin, 10% fetal calf serum and sodium bicarbonate).
# The cells were diluted at target density of 1.100.000 cells/ml were added by pipette (180 μl) into 96/well microtiter plates. Four-fold dilutions of the intended test concentration were added at time zero in 20 μl aliquots to the microtiter plate wells. Usually, test compound was evaluated at six 4-fold dilutions. In routine testing, the highest well concentration was 266.7 μM. All drug concentrations were examined in duplicates. All wells with exception of unstimulated controls were activated with 50 μl of concanavalin A (25 μg/ml). Incubations of cells with test compounds lasted for 72 hours at 37° C., in 5% CO2 atmosphere and 100% humidity. At the end of incubation period, the cells were assayed by using the [^3H]-TdR:
# Cell cultures were incubated with 0.5 μCi (20 μl of stock solution […]) per well for 6 hours at 37° C. and 5% CO2. The automated cell harvester was used to lyse cells in water and adsorb the DNA onto glass-fiber filters in the format of microtiter plate. The DNA incorporated [^3H]-TdR was retained on the filter while unincorporated material passes through. The filters were dried at room temperature overnight, sealed into a sample bag with 10-12 ml of scintillant. The amount of [^3H]-TdR present in each filter (in cpm) was determined by scintillation counting in a Betaplate liquid scintillation counter. The effective dose of immunosuppressant (ED) was calculated using the following equation: ED=(CCPMdrug exposed well/mean CCPMcontrol wells)×100%.
SMILES,IC50 [3],GI50 [1],GI50 [2],EC50 [4]
CC[C@H](CO)Nc1nc(NCc2ccccc2)c2n[nH]c(C(C)C)c2n1,0.03 µM,3.2 µM,2.4 µM,4.5 µM
CC(C)c1n[nH]c2c(Nc3cccc(Cl)c3)nc(NCCN)nc12,0.25 µM,22 µM,16 µM,6.7 µM
CC(C)c1n[nH]c2c(NCc3ccccc3)nc(N(CCO)CCO)nc12,1.1 µM,38 µM,25 µM,16 µM
Cc1n[nH]c2c(Nc3ccc(C(=O)O)c(Cl)c3)nc(NCCO)nc12,0.16 µM,9.2 µM,8.9 µM,
CC(C)c1n[nH]c2c(NCc3ccccc3)nc(N[C@@H](CO)C(C)C)nc12,,2.3 µM,2.2 µM,6.5 µM
CC[C@H](CO)Nc1nc(N(C)CCc2ccc(O)c(O)c2)c2[nH]nc(C(C)C)c2n1,1.5 µM,18.6 µM,13.1 µM,
CC(C)c1n[nH]c2c(NCc3ccccc3)nc(NCCO)nc12,2.3 µM,37 µM,25 µM,27 µM
CC[C@H](CO)Nc1nc(NCc2ccc(Cl)c(N)c2)c2[nH]nc(C(C)C)c2n1,0.024 µM,18.7 µM,11.4 µM,
Cc1n[nH]c2c(NCc3ccccc3)nc(NCCCN)nc12,1.4 µM,38 µM,32 µM,12.4 µM
Cc1n[nH]c2c(NCc3ccccc3)nc(NC3CCC(N)CC3)nc12 (stereo not shown),0.6 µM,2.5 µM,1.7 µM,1.5 µM
CC(=O)Oc1ccccc1CNc1nc(N[C@@H](CO)C(C)C)nc2c(C(C)C)n[nH]c12,0.012 µM,10.9 µM,8.7 µM,
Cc1n[nH]c2c(NCc3c(N)cccc3Cl)nc(NCCO)nc12,0.86 µM,7.2 µM,5.8 µM,
Cc1n[nH]c2c(Nc3ccc(Br)cc3)nc(NCCO)nc12,0.15 µM,8.6 µM,8.5 µM,
CC[C@H](CO)Nc1nc(NCc2cccc(Cl)c2O)c2[nH]nc(C(C)C)c2n1,0.012 µM,2.4 µM,1.2 µM,
COc1ccc(CNc2nc(NCCO)nc3c(C)n[nH]c23)c(O)c1O,0.29 µM,4.2 µM,3.5 µM,
CC[C@H](CO)Nc1nc(Nc2ccc(O)c(C(=O)O)c2)c2[nH]nc(C(C)C)c2n1,0.03 µM,25.8 µM,18.4 µM,
CC(C)c1n[nH]c2c(NCc3ccccc3)nc(NCCCN)nc12,,28 µM,24 µM,9.8 µM
CC[C@H](CO)Nc1nc(NCc2ccc(Cl)c(N)c2N)c2[nH]nc(C(C)C)c2n1,0.4 µM,9.9 µM,4.6 µM,
Cc1n[nH]c2c(NCc3cccc(O)c3)nc(NCCO)nc12,0.84 µM,10.2 µM,9.4 µM,
Cc1n[nH]c2c(Nc3cccc(Cl)c3)nc(NCCO)nc12,0.9 µM,9.8 µM,8.9 µM,
CC[C@H](CO)Nc1nc(NCc2cccc(OC)c2O)c2[nH]nc(C(C)C)c2n1,0.012 µM,6.2 µM,3.1 µM,
CC(C)c1n[nH]c2c(N(C)Cc3ccc(O)c(O)c3)nc(N[C@@H](CO)C(C)C)nc12,0.11 µM,4.8 µM,3.5 µM,
Cc1n[nH]c2c(NCc3ccccc3O)nc(NCCO)nc12,0.41 µM,8.2 µM,5.6 µM,
Cc1n[nH]c2c(NCc3cc(O)c(Cl)cc3O)nc(NCCO)nc12,0.38 µM,2.8 µM,1.5 µM,
CCC(CO)Nc1nc(NC(CO)c2ccccc2)c2[nH]nc(C(C)C)c2n1 (stereo not shown),0.21 µM,13.7 µM,7.9 µM,
CC(=O)c1ccccc1CNc1nc(NCCO)nc2c(C)n[nH]c12,0.4 µM,9.3 µM,10.8 µM,
CC[C@H](CO)Nc1nc(Nc2ccccc2)c2[nH]nc(C(C)C)c2n1,0.11 µM,18.4 µM,13.2 µM,

# More lines, in order of falling IC50 [3], values ahead:
IC50 [3],SMILES,GI50 [1],GI50 [2],EC50 [4]
15 µM,Cc1n[nH]c2c(NCc3ccccc3)nc(NCCN)nc12 [2-aminoethylamino / benzylamino / methyl],41 µM,35 µM,14.7 µM
1.8 µM,Cc1n[nH]c2c(NCc3ccc(Cl)c(N)c3)nc(NCCO)nc12,13.5 µM,12.4 µM,
1.1 µM,CC[C@H](CO)Nc1nc(NCc2ccc(O)c(O)c2)c2[nH]nc(C(C)C)c2n1,15.7 µM,9.2 µM,
0.9 µM,Cc1n[nH]c2c(NCc3ccccc3)nc(NC3CCCCC3N)nc12 (stereo not shown),3.2 µM,2.3 µM,1.2 µM
0.7 µM,Cc1n[nH]c2c(Nc3ccc(O)c(C(=O)O)c3)nc(NCCO)nc12,15.8 µM,12.4 µM,
0.51 µM,CC[C@H](CO)Nc1nc(N(C)Cc2ccc(O)c(O)c2)c2[nH]nc(C(C)C)c2n1,19.4 µM,11.6 µM,
0.45 µM,COc1cccc(CNc2nc(NCCO)nc3c(C)n[nH]c23)c1O,4.2 µM,3.5 µM,
0.38 µM,Cc1n[nH]c2c(NCc3cccc(Cl)c3O)nc(NCCO)nc12,2.1 µM,1.5 µM,
0.31 µM,CC(C)c1n[nH]c2c(NCc3ccc(O)c(O)c3)nc(N[C@@H](CO)C(C)C)nc12,5.8 µM,4.2 µM,
0.2 µM,CC(C)c1n[nH]c2c(Nc3cccc(Cl)c3)nc(NCCCO)nc12,33 µM,15 µM,12 µM
0.19 µM,CC(C)c1n[nH]c2c(Nc3cccc(Cl)c3)nc(N(CCO)CCO)nc12,34 µM,21 µM,7 µM
0.18 µM,Cc1n[nH]c2c(Nc3ccc(Cl)cc3)nc(NCCO)nc12,8.4 µM,7.6 µM,
0.16 µM,COc1cc(O)c(CNc2nc(NCCO)nc3c(C)n[nH]c23)cc1O,3.7 µM,4.2 µM,
0.05 µM,CC(=O)c1ccccc1CNc1nc(N[C@@H](CO)C(C)C)nc2c(C(C)C)n[nH]c12,18.2 µM,14.5 µM,
0.04 µM,CC(C)c1n[nH]c2c(NCc3ccc(Cl)c(N)c3N)nc(N[C@@H](CO)C(C)C)nc12,12.4 µM,8.2 µM,
0.04 µM,CC[C@H](CO)Nc1nc(NCc2cccc(O)c2)c2[nH]nc(C(C)C)c2n1,12.4 µM,10.5 µM,
0.02 µM,CC[C@H](CO)Nc1nc(Nc2cc(N)cc(Cl)c2)c2[nH]nc(C(C)C)c2n1,16.5 µM,9.4 µM,
0.015 µM,COc1cccc(CNc2nc(N[C@@H](CO)C(C)C)nc3c(C(C)C)n[nH]c23)c1O,9.1 µM,9.7 µM,
0.014 µM,CC[C@H](CO)Nc1nc(NCc2cccc(C)c2O)c2[nH]nc(C(C)C)c2n1,2.1 µM,1.9 µM,
0.013 µM,CC[C@H](CO)Nc1nc(Nc2ccc(Cl)c(N)c2)c2[nH]nc(C(C)C)c2n1,7.5 µM,4.7 µM,
0.012 µM,CC[C@H](CO)Nc1nc(NCc2ccccc2O)c2[nH]nc(C(C)C)c2n1,9.3 µM,7.8 µM,
0.011 µM,CC[C@H](CO)Nc1nc(NCc2ccc(Cl)c(O)c2O)c2[nH]nc(C(C)C)c2n1,5.6 µM,3.1 µM,
0.005 µM,CC[C@H](CO)Nc1nc(NCc2ccc(OC)c(O)c2O)c2[nH]nc(C(C)C)c2n1,6.2 µM,4.7 µM,
